The record followed here is PubChem BioAssay (NCI).

Molecules are shown by their SMILES.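 Five compound concentrations were applied to cells in 96-well plates for 48 hours; endpoints were derived by simple linear interpolation of the resulting dose-response curve. At the TGI there is no net growth.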 Bounds are passed on as bounds.

Some test systems named below: UO-31 renal; MALME-3M melanoma; MOLT-4 leukemia; MDA-MB-231 breast; CCRF-CEM leukemia; HCT-116 colon; T-47D breast; OVCAR-3 ovarian; HL-60(TB) leukemia; M14 melanoma; HCC-2998 colon; SK-OV-3 ovarian.
Assay in all cases: NCI tumour cell line growth inhibition, 48 h

Consider `CCOC(=O)NC(N(C)C(C(C)C)P(=O)(OCC)OCC)(C(F)(F)F)C(F)(F)F` (centres undefined), for which the TGI in the test with UO-31 renal, in the test with MALME-3M melanoma, with MOLT-4 leukemia, in the test on MDA-MB-231 breast, with CCRF-CEM leukemia and in the test on HCT-116 colon was over 100 µM throughout. The TGI in the test with T-47D breast, with OVCAR-3 ovarian, in the test with HL-60(TB) leukemia and in the test with M14 melanoma was over 100 µM throughout.
Regarding `O=C(/C=C/c1ccc(Cl)c(Cl)c1)CCN1CCN(CCC(=O)/C=C/c2ccc(Cl)c(Cl)c2)CC1`, the TGI in the test with UO-31 renal is 32.6 µM; in the test on HCC-2998 colon, 28.9 µM; in the test on SK-OV-3 ovarian, over 100 µM; in the test with MOLT-4 leukemia, over 100 µM; in the test on MDA-MB-231 breast, 56.7 µM; in the test on CCRF-CEM leukemia, over 100 µM. For the same compound, the TGI in the test with HCT-116 colon is 23.8 µM; in the test on T-47D breast it was 77.4 µM; in the test with OVCAR-3 ovarian it was 58.4 µM; in the test on HL-60(TB) leukemia it was over 100 µM; in the test on M14 melanoma, 35.6 µM.
In the case of `CC1=NN(C(=O)CC(=O)Nc2cccc(Cl)c2)C(=O)C1N=Nc1ccc(S(=O)(=O)c2ccc(N=NC3C(=O)N(C(=O)CC(=O)Nc4cccc(Cl)c4)N=C3C)cc2)cc1` (centres undefined), the TGI in the test with UO-31 renal was over 100 µM; in the test with HCC-2998 colon, over 100 µM; in the test on SK-OV-3 ovarian, over 100 µM; in the test on MALME-3M melanoma, over 100 µM; with MOLT-4 leukemia, over 100 µM; in the test with MDA-MB-231 breast it was 52.2 µM. In addition, the TGI in the test on CCRF-CEM leukemia, in the test on HCT-116 colon, in the test on T-47D breast, with OVCAR-3 ovarian, in the test on HL-60(TB) leukemia and with M14 melanoma was over 100 µM in each case.
For the compound `COc1cc(/C=C/C(=O)O)ccc1O`, the TGI with UO-31 renal, in the test on HCC-2998 colon, in the test with MALME-3M melanoma, in the test on MOLT-4 leukemia, with MDA-MB-231 breast and with CCRF-CEM leukemia was over 100 µM in each case. The TGI with HCT-116 colon, with T-47D breast, in the test with OVCAR-3 ovarian, in the test on HL-60(TB) leukemia and in the test with M14 melanoma was over 100 µM throughout.
Turning to `C=CCOc1ccc(C2c3c([nH][nH]c3=O)CC(C)(O)C2C(=O)OC)cc1OC` (centres undefined), the TGI in the test on UO-31 renal, with HCC-2998 colon, in the test with MALME-3M melanoma, with MOLT-4 leukemia, in the test on MDA-MB-231 breast and in the test on CCRF-CEM leukemia was over 100 µM in each case. Besides, the TGI in the test on HCT-116 colon, in the test with T-47D breast, in the test on OVCAR-3 ovarian, in the test on HL-60(TB) leukemia and in the test on M14 melanoma was over 100 µM throughout.
Take `CC1CSc2nc3[nH]c(=S)[nH]c3c(=O)n2C1` (centres undefined): the TGI in the test with UO-31 renal, in the test on HCC-2998 colon, with SK-OV-3 ovarian, in the test on MALME-3M melanoma, in the test with MOLT-4 leukemia and with MDA-MB-231 breast was over 100 µM each time. Also, the TGI with CCRF-CEM leukemia, with HCT-116 colon, with T-47D breast, in the test on OVCAR-3 ovarian and in the test on HL-60(TB) leukemia was over 100 µM throughout.
Turning to `C=C(Br)C(Cl)(CBr)CCC(Br)C(C)(C)Cl` (centres undefined), the TGI in the test with UO-31 renal, in the test with HCC-2998 colon, in the test with SK-OV-3 ovarian, in the test with MOLT-4 leukemia, in the test with MDA-MB-231 breast and in the test with CCRF-CEM leukemia was over 10 µM in each case. Also, the TGI with HCT-116 colon, in the test on T-47D breast, in the test on OVCAR-3 ovarian, in the test with HL-60(TB) leukemia and with M14 melanoma was over 10 µM in each case.
Consider `Cc1[nH]n(-c2nc(O)c(C)c(=O)[nH]2)c(=O)c1CCO`, for which the TGI in the test with UO-31 renal, with SK-OV-3 ovarian, in the test on MALME-3M melanoma, in the test with MOLT-4 leukemia, with MDA-MB-231 breast and with CCRF-CEM leukemia was over 100 µM throughout. Further, the TGI in the test with HCT-116 colon, with T-47D breast, with HL-60(TB) leukemia and in the test with M14 melanoma was over 100 µM in each case.
Regarding `O=C1NC(N/N=C/C(O)C(O)C(O)C(O)CO)=N/C1=C\c1cccs1` (centres undefined), the TGI in the test on HCC-2998 colon, in the test with SK-OV-3 ovarian, in the test with MALME-3M melanoma, with MOLT-4 leukemia, in the test on MDA-MB-231 breast and with CCRF-CEM leukemia was over 100 µM throughout. For the same compound, the TGI in the test on HCT-116 colon, in the test with T-47D breast, in the test on OVCAR-3 ovarian, in the test with HL-60(TB) leukemia and in the test on M14 melanoma was over 100 µM each time.
On to `C=CCC1(O)c2cccc(O)c2C(=O)c2cccc(O)c21` (centres undefined), for which the TGI amounted to 52.8 µM in the test with UO-31 renal; 30.3 µM in the test with HCC-2998 colon; 53.6 µM with MOLT-4 leukemia; 53.4 µM with MDA-MB-231 breast; 31.1 µM in the test on HCT-116 colon; 30.2 µM in the test on T-47D breast. Further, the TGI came to 59.7 µM in the test on OVCAR-3 ovarian, 34.2 µM in the test on HL-60(TB) leukemia and 32 µM in the test on M14 melanoma.
As to `CCOC(=O)NNC1(SC)NC(=O)c2c(cc(Cl)oc2=O)O1` (centres undefined), the TGI is 3.35 µM in the test with UO-31 renal; 16.1 µM with HCC-2998 colon; 26.8 µM in the test on SK-OV-3 ovarian; 10.3 µM in the test with MOLT-4 leukemia; 25.1 µM in the test with MDA-MB-231 breast; 10.5 µM with CCRF-CEM leukemia. Moreover, the TGI amounted to 3.08 µM in the test on HCT-116 colon; 29.9 µM in the test on T-47D breast; 10.9 µM with OVCAR-3 ovarian; 3.6 µM in the test on HL-60(TB) leukemia; 11.7 µM in the test on M14 melanoma.
On to `O=S(=O)(O)Nc1ccc(-c2nc3ccccc3s2)cc1Cl`, for which the TGI in the test with UO-31 renal, in the test with HCC-2998 colon, with SK-OV-3 ovarian, in the test with MALME-3M melanoma, in the test with MDA-MB-231 breast and in the test with CCRF-CEM leukemia was over 100 µM throughout. Also, the TGI in the test with HCT-116 colon, in the test with T-47D breast, in the test with OVCAR-3 ovarian, with HL-60(TB) leukemia and in the test with M14 melanoma was over 100 µM in each case.
